The values that follow come from patent US20210134398A1, “Combinatorial Chemistry Computational System and Enhanced Selection Method” (Southern Methodist University, priority 2019, published 2021).

“Also recorded” adds a separate entry of the source.

For data set [1], the target named is T1, Normal Human MDR1 P-glycoprotein (Homo sapiens, UniProt P08183).
T1 construct: made in house; host or cells: Pichia pastoris (P-gp); E. coli BL21 (DE3) (MSP1E3D1)
Kind of data set: ATPase activity assay (basal and verapamil-stimulated), P-gp in nanodiscs. The class given is biochemical. To be noted: for Effect on stimulated ATPase / Stimulated ATPase: in the presence of verapamil; for Stimulated ATPase / Basal ATPase: ± standard deviation; for Effect on basal ATPase / Basal ATPase: no added transport substrate. The source says:
To assess whether the observed discrepancies of compounds stimulating basal P-gp ATPase activity but not being transport substrates of the human pump in the cell culture assessments were due to the fact that these biochemical assays used a cysteineless variant of the mouse MDR3 P-glycoprotein, the experiments were repeated using normal human MDR1 P-gp. In order to stabilize the human protein for the activity assays, the protein was assembled into membrane nanodiscs as described herein.
(§1) P-glycoprotein Purification. Cysteine-less MDR3 and the human normal MDR1 P-glycoprotein was recombinantly expressed in the yeast Pichia pastoris essentially as in^45, 46 and used for assaying ATP hydrolysis and ATP binding to the protein in the presence of the 29-variants. Purification of the protein was performed as described^49 with small modifications resulting in highly enriched P-gp in mixed micelles containing dodecyl maltoside (DDM) and lysophosphatidyl choline^26.
Nanodisc assembly. Human P-gp in mixed detergent micelles obtained during protein purification, was reconstituted into nanodiscsas described in references^73, 74 with small modifications. […] The detergent was removed with Bio-Beads™ SM-2 Adsorbent Media (BioRad). Ni-NTA Agarose (Qiagen) chromatography was used to purify P-gp reconstituted nanodiscs using 6 bed volumes of start buffer (20% (v/v) glycerol, 50 mM Tris-CL pH 7.5 at 4° C., 50 mM NaCl), and 5 bed volumes of elution buffer (20% (v/v) glycerol, 50 mM Tris-Cl pH 7.5 at 4° C., 50 mM NaCl, 300 mM imidazole).
(§2) ATPase Activity Assays. ATP hydrolysis activity was measured using a coupled enzyme assay^72 as modified in reference^26.

The target in data set [2] is T2, Cysteineless Mouse MDR3 P-glycoprotein (Mus musculus, UniProt P21447, C1070A/C1121A/C1223A/C133A/C427A/C638A/C669A/C713A/C952A).
T2 construct: made in house; host or cells: Pichia pastoris
Kind of data set: ATPase activity assay (basal and verapamil-stimulated), purified P-gp in mixed micelles. The class given is biochemical. The settings on record: for Effect on stimulated ATPase / Stimulated ATPase: in the presence of verapamil; for Stimulated ATPase / Basal ATPase: ± standard deviation. As for the experimental part:
Evaluation of mode of inhibition of P-glycoprotein by Group 1 and Group 2 variants of compound 29. To assess the mode of inhibition of P-gp by the novel variants of P-gp inhibitor 29, ATP hydrolysis by P-gp was evaluated in the presence or absence of the variants. […] Murine P-gp (MDR3) expressed in Pichia pastoris that had all naturally occurring cysteines replaced with alanine, was used^45, 46. It is widely assumed that the ATP hydrolytic rate of P-gp is stimulated in the presence of transport substrates when compared to ATP hydrolysis in the absence of transport substrates. Assays comparing these rates can therefore be useful not only in identifying inhibitors of P-gp catalyzed ATP hydrolysis, but also to potentially infer whether a compound might be a transport substrate if basal ATPase rates are stimulated by the addition of a compound.
as §1, §2

Data set [3] has as its target T3, cysteineless mouse P-glycoprotein (Mus musculus, UniProt P21447, C1070A/C1121A/C1223A/C133A/C427A/C638A/C669A/C713A/C952A).
T3 construct: made in house; host or cells: Pichia pastoris
Kind of data set: SL-ATP (spin-labeled ATP analog) binding titration by ESR. The settings on record: for Maximum ATP binding: in the presence of the compound, ± standard deviation. As for the experimental part: Effects of 29 variants on binding of an ATP-analog to purified P-glycoprotein. ATP binding in the presence of the 29 variants was assessed in titration assays using a spin-labeled analog of ATP, 2′,3′-SL-ATP (2′,3′-(2,2,5,5,-tetramethyl-3-pyrroline-1-oxyl-3-carboxylic acid ester) ATP; (2′,3′ indicates a rapid equilibrium of the ester bond between the C2′ and C3′ of the ribose moiety))^48-50, and electron spin resonance spectroscopy as described in^26. Due to the lower stability of the human P-glycoprotein in the extended times needed for these experiments, the cysteineless mouse protein was used here. The goal was to assess whether binding of the 29 variants to P-gp affected nucleotide binding to the protein.
ESR Measurements. ESR measurements were as described in^26. The amount of protein-bound spin-labeled (SL) adenine nucleotide was determined as the difference between the known total concentration of SL-ATP (2′,3′-(2,2,5,5,-tetramethyl-3-pyrroline-1-oxyl-3-carboxylic acid ester) —ATP^48) added and the free spin-labeled nucleotide (SL-ANP) observed in the experiment. Hyperbolic curve fitting of the results was performed using GraphPad Prism 7 to determine maximum binding and apparent affinity for the spin-labeled nucleotide. The equation used for the fitting the curves was […], where P1 corresponds to the maximum binding of SL-ANP (moles of SL-ANP bound per mole P-gp), and P2 equals the apparent dissociation constant for SL-ANP. To quantify the amount of free SL-ANP, standard curves were established where the signal amplitude of the high field signal of the ESR spectra of free SL-ANP in the absence of protein was correlated to the concentration of SL-ANP added. All ESR measurements were performed using a Bruker EMX 6/1 ESR spectrophotometer operating in X-band mode and equipped with a high sensitivity cavity. Spectra were acquired at a microwave frequency of 9.33 GHz, microwave power of 12.63 mW, 100 kHz modulation frequency and a resolution of 1024 points. The centerfield of the scan was at 3325 G and an area of 100 G was scanned. The peak to peak modulation amplitude was 1G and the time constant was set to 10.240 ms. The conversion time was 163.84 ms, resulting in a total time sweep of 167.772 s. The signal gain was adjusted for the SL-ATP concentrations in the different experiments.

In data set [4] the target is T4, P-gp-catalyzed transport of calcein AM in DU145TXR cells (Homo sapiens, UniProt P08183).
T4 construct: DU145 human prostate cancer cells^52 as well as the multidrug resistant sub-line, DU145TXR; endogenous in cells; host or cells: DU145TXR (paclitaxel-selected sub-line of human DU145 prostate cancer cells)
Kind of data set: Calcein AM accumulation assay. The settings on record: without pre-incubation, compared to parental 29; 5 μM stated for Group 2. The data set is classed as cell-based.

T1 sequence (P08183 whole entry): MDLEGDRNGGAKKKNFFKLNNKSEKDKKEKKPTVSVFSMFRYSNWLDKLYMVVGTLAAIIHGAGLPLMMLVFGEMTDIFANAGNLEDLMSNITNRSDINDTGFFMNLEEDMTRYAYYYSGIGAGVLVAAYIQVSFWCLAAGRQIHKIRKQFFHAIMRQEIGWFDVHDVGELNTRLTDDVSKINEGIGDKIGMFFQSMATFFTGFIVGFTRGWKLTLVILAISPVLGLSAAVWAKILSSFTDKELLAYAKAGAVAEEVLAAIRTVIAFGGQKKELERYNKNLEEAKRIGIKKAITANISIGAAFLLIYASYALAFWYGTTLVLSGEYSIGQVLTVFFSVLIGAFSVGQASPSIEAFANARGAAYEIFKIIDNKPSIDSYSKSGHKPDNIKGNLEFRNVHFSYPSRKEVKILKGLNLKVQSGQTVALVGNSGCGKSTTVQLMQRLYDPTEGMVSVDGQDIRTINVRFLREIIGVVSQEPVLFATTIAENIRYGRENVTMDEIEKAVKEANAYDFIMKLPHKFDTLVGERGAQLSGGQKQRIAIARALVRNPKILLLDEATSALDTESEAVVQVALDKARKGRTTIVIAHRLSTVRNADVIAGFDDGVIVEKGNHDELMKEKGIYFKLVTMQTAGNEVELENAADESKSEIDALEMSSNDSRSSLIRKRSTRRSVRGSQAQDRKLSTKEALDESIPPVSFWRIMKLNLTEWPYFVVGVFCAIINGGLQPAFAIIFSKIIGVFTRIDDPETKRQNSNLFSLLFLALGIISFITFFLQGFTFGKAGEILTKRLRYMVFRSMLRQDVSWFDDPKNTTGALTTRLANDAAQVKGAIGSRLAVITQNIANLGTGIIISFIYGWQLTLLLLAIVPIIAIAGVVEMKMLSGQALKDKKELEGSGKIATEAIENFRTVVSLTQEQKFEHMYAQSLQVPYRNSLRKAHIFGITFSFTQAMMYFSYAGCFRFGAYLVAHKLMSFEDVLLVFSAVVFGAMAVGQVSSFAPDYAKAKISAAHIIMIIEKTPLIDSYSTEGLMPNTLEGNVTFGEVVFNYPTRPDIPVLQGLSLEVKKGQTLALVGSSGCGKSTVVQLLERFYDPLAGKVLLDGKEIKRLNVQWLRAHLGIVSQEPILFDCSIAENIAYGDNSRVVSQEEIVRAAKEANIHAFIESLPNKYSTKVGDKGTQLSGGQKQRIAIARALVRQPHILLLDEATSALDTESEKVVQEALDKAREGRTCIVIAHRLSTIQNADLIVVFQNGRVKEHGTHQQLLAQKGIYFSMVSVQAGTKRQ
T3 sequence (P21447 whole entry C133A/C427A/C638A/C669A/C713A/C952A/C1070A/C1121A/C1223A): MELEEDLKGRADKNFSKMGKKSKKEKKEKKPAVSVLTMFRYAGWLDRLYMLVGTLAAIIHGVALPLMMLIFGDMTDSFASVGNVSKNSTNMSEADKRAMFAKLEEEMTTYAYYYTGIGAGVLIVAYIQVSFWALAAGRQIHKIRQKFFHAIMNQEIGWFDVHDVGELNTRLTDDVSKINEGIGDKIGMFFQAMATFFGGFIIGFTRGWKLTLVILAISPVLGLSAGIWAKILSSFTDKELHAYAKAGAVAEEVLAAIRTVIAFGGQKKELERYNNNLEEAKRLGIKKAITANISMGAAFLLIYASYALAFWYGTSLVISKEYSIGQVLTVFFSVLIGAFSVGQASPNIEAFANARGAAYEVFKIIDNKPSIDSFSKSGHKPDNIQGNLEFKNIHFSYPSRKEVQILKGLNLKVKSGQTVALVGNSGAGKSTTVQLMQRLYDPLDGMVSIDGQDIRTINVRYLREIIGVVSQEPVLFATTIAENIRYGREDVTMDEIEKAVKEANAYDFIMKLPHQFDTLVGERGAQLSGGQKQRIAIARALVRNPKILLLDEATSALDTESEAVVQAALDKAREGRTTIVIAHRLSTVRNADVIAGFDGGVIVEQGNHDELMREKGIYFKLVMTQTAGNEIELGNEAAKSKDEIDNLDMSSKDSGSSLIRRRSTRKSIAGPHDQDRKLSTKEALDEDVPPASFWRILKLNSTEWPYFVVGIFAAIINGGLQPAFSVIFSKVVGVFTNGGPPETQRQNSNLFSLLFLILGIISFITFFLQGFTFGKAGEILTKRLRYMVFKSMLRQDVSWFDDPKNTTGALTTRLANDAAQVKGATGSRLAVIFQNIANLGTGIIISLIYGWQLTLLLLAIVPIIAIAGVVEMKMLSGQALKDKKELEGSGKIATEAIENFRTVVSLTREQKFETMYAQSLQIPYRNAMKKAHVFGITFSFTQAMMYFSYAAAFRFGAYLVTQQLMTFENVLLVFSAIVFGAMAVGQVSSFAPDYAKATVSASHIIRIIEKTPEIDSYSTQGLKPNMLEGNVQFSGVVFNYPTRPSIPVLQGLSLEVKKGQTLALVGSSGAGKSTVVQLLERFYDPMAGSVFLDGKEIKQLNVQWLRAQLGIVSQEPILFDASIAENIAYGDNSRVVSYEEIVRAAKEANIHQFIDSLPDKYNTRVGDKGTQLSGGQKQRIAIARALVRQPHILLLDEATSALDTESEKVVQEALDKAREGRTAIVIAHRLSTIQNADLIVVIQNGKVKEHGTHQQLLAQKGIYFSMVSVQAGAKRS
T2 sequence (P21447 whole entry C133A/C427A/C638A/C669A/C713A/C952A/C1070A/C1121A/C1223A): as above
T4 sequence (P08183 whole entry): as the sequence (P08183 whole entry) above

Take “2-{[2-(9H-flouoren-2-yl)-2-oxoethyl]}-N-[1-phenyl-3-(2,4,5-trimethylphenyl0-1H-pyrazol-5-yl]acetamide [29-216]”: the entries for the “Effect on stimulated ATPase” value in data set [1], in data set [2] (listed as 216) and in data set [2] (listed as SMU29-216) were “inhibitor”, “did not affect; also recorded: little effect” and “none”, respectively. In addition, the “Stimulated ATPase” value is given as 64 ± 6 % of DMSO in data set [1] and 108 ± 2 % of DMSO in data set [2]. The “Effect on basal ATPase” value was “inhibitor” in data set [1]; “did not significantly affect; also recorded: did not activate” in data set [2] (no added transport substrate, listed as 216); “none” in data set [2] (no added transport substrate, listed as SMU29-216). The “Basal ATPase” value in data set [1] is 69 ± 8 % of DMSO; in data set [2] (no added transport substrate) it was 105 ± 7 % of DMSO. Also, the “Effect on SL-ANP binding” value in data set [3] is given as “no”. Moreover, in data set [3], the “Maximum ATP binding” value is 1.7 ± 0.1 mol SL-ANP bound/mol P-gp.
On to `Cc1cc(C)c(-c2cc(NC(=O)CSCC(=O)N3c4ccccc4CCc4ccccc43)n(-c3ccccc3)n2)cc1C` [29-227, 2-[(2-{2-azatricyclo[9.4.0.0]pentadeca-1(11),3(8},4,6,12,14-hexaen-2-yl)-2-oxoethyl)sulfanyl]-N-[1-phenyl-3-(2,4,5-trimethylphenyl)-1H-pyrazol-5-yl]acetamide], for which the figures for the “Effect on stimulated ATPase” value in data set [1], in data set [2] (listed as 227) and in data set [2] (listed as SMU29-227) were “inhibitor”, “inhibited activity similar to parental compound 29; also recorded: inhibited verapamil-stimulated ATPase activity” and “inhibitor”, respectively. The “Stimulated ATPase” value in data set [1] is listed as 62 ± 5 % of DMSO; in data set [2] it was 50 ± 2 % of DMSO. The “Effect on basal ATPase” value is listed as “none” in data set [1]; “did not significantly affect; also recorded: did not activate” in data set [2] (no added transport substrate, listed as 227); “none” in data set [2] (no added transport substrate, listed as SMU29-227). In addition, the “Basal ATPase” value was 83 ± 7 % of DMSO in data set [1] and 88 ± 4 % of DMSO in data set [2] (no added transport substrate). Also, in data set [3], the “Effect on SL-ANP binding” value is “no”. The “Maximum ATP binding” value in data set [3] came out at 1.8 ± 0.1 mol SL-ANP bound/mol P-gp.
As for `Cc1cc(C)c(-c2cc(NC(=O)CSCC(=O)Nc3ccc4ccccc4c3)n(-c3ccccc3)n2)cc1C` [29-231, 2-({[(naphthalen-2-yl)carbamoyl]methyl}sulfanyl)-N-[1-phenyl-3-(2,4,5-trimethylphenyl)-1H-pyrazol-5-yl]acetamide], the “Effect on stimulated ATPase” value is “inhibitor” in data set [1], “slightly stimulated” in data set [2] (listed as 231) and “stimulator” in data set [2] (listed as SMU26-231). Further, the “Stimulated ATPase” value in data set [1] was 40 ± 3 % of DMSO; in data set [2], 141 ± 18 % of DMSO. In addition, the “Effect on basal ATPase” value in data set [1] is “inhibitor”; in data set [2] (no added transport substrate, listed as SMU26-231), “inhibitor”. Also, the “Basal ATPase” value in data set [1] is listed as 70 ± 4 % of DMSO; in data set [2] (no added transport substrate) it was 70 ± 0 % of DMSO. Further, in data set [3], the “Effect on SL-ANP binding” value is listed as “marginally”. Besides, the “Maximum ATP binding” value in data set [3] is 1.8 ± 0.1 mol SL-ANP bound/mol P-gp.
`COc1cc(NC(=O)CSCC(=O)Nc2cc(-c3cc(C)c(C)cc3C)nn2-c2ccccc2)cc(OC)c1OC` [29-238, N-[1-phenyl-3-(2,4,5-trimethylphenyl)-1H-pyrazol-5-yl]-2-({[(3,4,5-trimethoxyphenyl)carbamoyl]methyl}sulfanyl)acetamide]: the “Effect on stimulated ATPase” value in data set [1] is given as “inhibitor”; in data set [2] (listed as 238), “about two-fold”; in data set [2] (listed as SMU29-238) it was “stimulator”. The figures for the “Stimulated ATPase” value in data set [1] and in data set [2] were 61 ± 7 % of DMSO and 194 ± 22 % of DMSO, respectively. In addition, the figures for the “Effect on basal ATPase” value in data set [1] and in data set [2] (no added transport substrate) were “none” and “stimulator”, respectively. Also, the “Basal ATPase” value in data set [1] is recorded as 89 ± 7 % of DMSO; in data set [2] (no added transport substrate), 1143 ± 46 % of DMSO. Moreover, in data set [2] (no added transport substrate), the “Stimulation of basal ATPase” value is on record as roughly 10 fold. In addition, the “Calcein accumulation in DU145TXR (in words)” value in data set [4] is “considerably increased calcein accumulation”. Further, the “Effect on SL-ANP binding” value in data set [3] is on record as “yes”. Further, the entries for the “Maximum ATP binding” value in data set [3] (listed as 238) and in data set [3] (listed as SMU29-238) were “about 1 mol SL-ANP bound/mol P-gp” and 1.2 ± 0.1 mol SL-ANP bound/mol P-gp, respectively.
With `Cc1cc(C)c(-c2cc(NC(=O)CSc3nnc(C4CC4)[nH]3)n(-c3ccccc3)n2)cc1C` [compound 29, reference compound], in data set [1], the “Effect on stimulated ATPase” value is “inhibitor”, the “Stimulated ATPase” value is listed as 62 ± 3 % of DMSO, the “Effect on basal ATPase” value is reported as “none” and the “Basal ATPase” value is 88 ± 9 % of DMSO. Besides, in data set [2], the “Effect on stimulated ATPase” value is listed as “inhibitor” and the “Stimulated ATPase” value is 49 ± 2 % of DMSO. Moreover, in data set [2] (no added transport substrate), the “Effect on basal ATPase” value was “none” and the “Basal ATPase” value was 95 ± 11 % of DMSO.
